Results reported in patent US20250188110A1, “SPECIFIC SMALL MOLECULE INHIBITORS THAT BLOCK KMT9 METHYLTRANSFERASE ACTIVITY AND FUNCTION” (ALBERT-LUDWIGS-UNIVERSITÄT FREIBURG, priority 2021, published 2025).

Columns and labels:
KMT9 [1] = target: T1, KMT9 (Homo sapiens, UniProt Q9Y5N5); test: KMT9 thermal shift assay (SyproOrange); type: binding; settings: ΔTm; 500 µM compound, 2 μM KMT9, 5X SO; read-out: Thermal shift
T1 sequence (Q9Y5N5 1-214): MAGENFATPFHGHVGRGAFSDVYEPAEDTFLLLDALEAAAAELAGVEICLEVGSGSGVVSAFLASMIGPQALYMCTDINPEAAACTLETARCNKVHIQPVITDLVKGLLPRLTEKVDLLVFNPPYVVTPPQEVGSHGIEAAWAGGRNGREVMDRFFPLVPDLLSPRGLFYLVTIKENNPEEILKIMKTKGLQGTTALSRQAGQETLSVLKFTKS
T1 sequence (Q9UI30 1-120 isoform Q9UI30-2 partner): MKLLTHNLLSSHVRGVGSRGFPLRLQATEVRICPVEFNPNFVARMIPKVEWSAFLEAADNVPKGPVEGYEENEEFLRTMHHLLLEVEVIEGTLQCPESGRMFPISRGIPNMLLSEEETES
Description: The assay was carried out in 96-well Hard-Shell PCR plates (Bio-Rad Laboratories Inc.). Assay buffer consisted of 50 mM BTP, 1 mM MgCl2 and 1 mM DTT at a pH of 8.5 (adjusted using 1 M HCl and 1 M NaOH). 20X inhibitor stock (in DMSO), 2X enzyme stock and 4X SyproOrange (SO) stock (both in assay buffer) were prepared. 1 μL of 20X compound, 4 μL of assay buffer, 10 μL of 2X KMT9 and 5 μL of 4X SO were pipetted. For the no-compound control, 20X inhibitor stock was replaced by DMSO. The final volume was 20 μL. The plate was spun down at 700 rpm for 1 min using a Hettich UNIVERSAL 320 centrifuge and incubated at 25° C., shaking at 600 rpm. After incubation, the plate was spun down for 1 min at 700 rpm and measurement was conducted using a CFX96 Touch Real-Time PCR Detection System (Bio-Rad Laboratories Inc.). The plate was equilibrated at 20° C. for 4 min and then heated stepwise at a rate of 1° C. per 15 s until 95° C. After every step, fluorescence was measured in FRET mode. Calculation of melting points was conducted by a Boltzman sigmoidal model using GraphPad Prism 7.0.
For the results of the thermal shift assay shown as “Thermal shift” in Table 1, “++++” represents a ΔTm of greater 20 K, “+++” represents a ΔTm of greater than 15 K and less than or equal to 20 K (15 K<ΔTm≤20 K); “++” represents a ΔTm of greater than 10 K and less than or equal to 15 K (10 K<ΔTm ≤ 15 K); “+” represents a ΔTm of equal to or less than 10 K (ΔTm≤10 K).

KMT9 [2] = target: T1, KMT9; test: KMT9 methyltransferase inhibition assay, 3H-SAM scintillation (entries 1-154); type: biochemical; settings: entries 1-154: 3H-SAM assay, 25 nM KMT9, 5 μM ETF1
Description: The assay was carried out in 0.5 mL Eppendorf tubes in duplicates. Assay buffer consisted of 50 mM BTP, 1 mM MgCl2, 1 mM DTT and 0.01% Triton-X^100 at a pH of 8.5 (adjusted using 1 M HCl and 1 M NaOH). 20X inhibitor stock (in DMSO), 2X enzyme stock and 4X substrate mix (both in assay buffer) were prepared. The substrate mix consisted of Tritium-labelled S-adenosylmethionine (3H-SAM), S-adenosylmethionine (SAM) and eukaryotic peptide chain release factor subunit1 (Homo sapiens, residues 140-275)(ETF1). Final assay concentrations were set to 25 nM KMT9, 0.3 μM 3H-SAM, 0.7 µM SAM and 5 μM ETF1. […] 5 μL of 4x substrate mix was added to initiate the reaction. The final reaction volume was 20 μL. For the positive control, the compound of formula (I) was replaced by DMSO; for the negative control, the compound of formula (I) was replaced by DMSO and KMT9 was replaced by assay buffer. The reaction mix was incubated in an Eppendorf thermomixer comfort at 30° C. for 2 h, shaking at 300 rpm. The reaction was quenched using 5 μL 50% trichloroacetic acid (TCA) and incubated at 25° C. for 5 minutes. 22 μL of the mixture was transferred into 96-well MultiScreen@HTS FB filter plates (Merck KGaA, Darmstadt, Germany) and washed four times with 10% TCA and two times with 100% ethanol. The plate was dried overnight, the filters were transferred into individual 6 mL Pony Vials (Perkin Elmer Inc, Waltham, MA, USA) and incubated in 3 mL of Ultima Gold scintillation cocktail (Perkin Elmer Inc, Waltham, MA, USA) for 30 minutes. The scintillation signal was measured for 3x 1 min using TriCarb 2910 TR (Perkin Elmer) scintillation counter in 3H CPM mode (LL: 0, UL: 18.6). Inhibition was calculated using the following formula: […]
With xc: signal of compound, Xpos: mean signal of positive control, Xneg: mean signal of negative control. Data fitting was carried out by GraphPad 7.0 using nonlinear fit ([Inhibitor]vs. response-variable slope (four parameters)).
For the results of the methyltransferase inhibition assay shown as “Inhibition” in Table 1, “I” represents an IC50 less than 0.1 μM, “II” represents an IC50 equal or higher than 0.1 μM and less than 1 μM, “III” represents an IC50 equal or higher than 1 µM and less than 10 µM and “IV” represents an IC50 equal or higher than 10 µM

KMT9 [3] = target: T1, KMT9; test: Microscale thermophoresis (MST) KMT9 binding; settings: microscale thermophoresis, His-tag labelled KMT9 (20 nM); read-out: MST
Description: To determine the binding affinity of the compounds according to the present invention and KMT9, microscale thermophoresis (MST) analysis was performed with a NanoTemper Monolith NT.115 instrument (NanoTemper Technologies GmbH). KMT9 was labelled with a RED-Tris-NTA labelling kit (NanoTemper Technologies GmbH) based on the manufacturer's instructions. Buffer including 25 mM HEPES (pH 7.5), 100 mM NaCl, 1 mM DTT and 0.05% Tween was used for the reaction buffer. Varying concentrations of the tested compounds of formula (I) as indicated in Table 1 were titrated against His-tag labelled KMT9 proteins (20 nM). Samples were loaded into standard Capillaries (NanoTemper Technologies GmbH) and MST measurements were performed using 40% MST power and 100% LED power. For each set of binding experiments, MST measurement was carried out with Binding Affinity module in MO.Control program under Nano-RED Excitation. Datasets were processed with the MO.Affinity Analysis software (NanoTemper Technologies GmbH).
For the results of the microscale thermophoresis (MST) assay shown as “MST” in Table 1, “A” represents a Kd of equal to or less than 10 nM (Kd≤10 nM); “B” represents a Kd of greater than 10 nM and equal to or less than 100 nM (10 nM<Kd<100 nM); “C” represents a Kd of greater than 100 nM and equal to or less than 1000 nM (100 nM<Kd ≤ 1000 nM); “D” represents a Kd of greater than 1000 nM (1000 nM<Kd).

SMILES	ΔTm at 500 µM (KMT9 [1])	IC50 (KMT9 [2])	Kd (KMT9 [3])
COCCn1cc(COc2ccc(CNCCCNC[C@H]3O[C@@H](n4cnc5c(N)ncnc54)[C@H](O)[C@@H]3O)cc2)nn1 [293 (190), (2R,3R,4S,5R)-2-(6-amino-9H-purin-9-yl)-5-(((3-((4-((1-(2-methoxyethyl)-1/-1,2,3-triazol-4-yl)methoxy)benzyl)amino)propyl)amino)methyl)tetrahydrofuran-3,4-diol]	≤ 10 °C	> 10000 nM	> 1000 nM
COCCn1cc(-c2ccc(CCNCCCNC[C@H]3O[C@@H](n4cnc5c(N)ncnc54)[C@H](O)[C@@H]3O)cc2)nn1 [295 (192), (2R,3R,4S,5R)-2-(6-amino-9H-purin-9-yl)-5-(((3-((4-(1-(2-methoxyethyl)-1H-1,2,3-triazol-4-yl)phenethyl)amino)propyl)amino)methyl)tetrahydrofuran-3,4-diol]	≤ 10 °C	> 10000 nM	100 to 1000 nM
Nc1ncnc2c1ncn2[C@@H]1O[C@H](C(=O)NCCCNCCc2ccc(Oc3ccccc3)cc2)[C@@H](O)[C@H]1O [297 (194), (2S,3S,4R,5R)-5-(6-amino-9H-purin-9-yl)-3,4-dihydroxy-N-(3-((4-phenoxyphenethyl)amino)propyl) tetrahydrofuran-2-carboxamide]	≤ 10 °C	1000 to 10000 nM	100 to 1000 nM
Nc1ncnc2c1ncn2[C@@H]1O[C@H](C(=O)NCCCNCCc2cccc(Oc3ccccc3)c2)[C@@H](O)[C@H]1O [299 (196), (2S,3S,4R,5R)-5-(6-amino-9H-purin-9-yl)-3,4-dihydroxy-N-(3-((3-phenoxyphenethyl)amino)propyl) tetrahydrofuran-2-carboxamide]	10 to 15 °C	1000 to 10000 nM	100 to 1000 nM
Nc1ncnc2c1ncn2[C@@H]1O[C@H](C(=O)NCCCNCCc2ccccc2)[C@@H](O)[C@H]1O [301 (198), (2S,3S,4R,5R)-5-(6-amino-9H-purin-9-yl)-3,4-dihydroxy-N-(3-(phenethylamino)propyl) tetrahydrofuran-2-carboxamide]	≤ 10 °C	> 10000 nM	100 to 1000 nM
Nc1ncnc2c1ncn2[C@@H]1O[C@H](C(=O)NCCCNC(=O)Cc2ccccc2)[C@@H](O)[C@H]1O [303 (200)]	≤ 10 °C	> 10000 nM	> 1000 nM
CCC(=O)NCCCNC(=O)[C@H]1O[C@@H](n2cnc3c(N)ncnc32)[C@H](O)[C@@H]1O [305 (204), (2,3S,4R,5R)-5-(6-amino-9//-purin-9-yl)-3,4-dihydroxy-N-(3-propionamidopropyl) tetrahydrofuran-2-carboxamide]	≤ 10 °C	> 10000 nM	> 1000 nM
CCNC(=O)NCCCNC(=O)[C@H]1O[C@@H](n2cnc3c(N)ncnc32)[C@H](O)[C@@H]1O [307 (206), (2S,3S,4R,5R)-5-(6-amino-9H-purin-9-yl)-N-(3-(3-ethylureido)propyl)-3,4-dihydroxytetrahydrofuran-2-carboxamide]	≤ 10 °C	> 10000 nM	> 1000 nM
CNc1ncnc2c1ccn2[C@@H]1O[C@H](CNCCCNCCc2ccccc2)[C@@H](O)[C@H]1O [309 (208), (2R,3R,45,5R)-2-(4-(methylamino)-7H-pyrrolo[2,3-d]pyrimidin-7-yl)-5-(((3-(phenethylamino)pronyl)amino)methyl) tetrahydrofuran-3.4-diol]	10 to 15 °C	> 10000 nM	> 1000 nM
CNc1ncnc2c1c(C)cn2[C@@H]1O[C@H](CNCCCNCCc2ccccc2)[C@@H](O)[C@H]1O [311 (210), (2R,3R,45,5R)-2-(5-methyl-4-(methylamino)-7//-pyrrolo[2,3-a]pyrimidin-7-yl)-5-(((3-(phenethylamino)propyl)amino)methyl)tetrahydrofuran-3,4-diol]	≤ 10 °C	> 10000 nM	> 1000 nM
CCC(=O)NCCCNC[C@H]1O[C@@H](n2cnc3c(N)ncnc32)[C@H](O)[C@@H]1O [313 (212), N-(3-((((2R,3S,4R,5R)-5-(6-amino-9//-purin-9-yl)-3,4-dihydroxytetrahydrofuran-2-yl)methyl)amino)propyl)propionamide]	≤ 10 °C	> 10000 nM	> 1000 nM
CCC(=O)NCCNC[C@H]1O[C@@H](n2cnc3c(N)ncnc32)[C@H](O)[C@@H]1O [315 (216), N-(2-((((2R,3S,4R,5R)-5-(6-amino-9H-purin-9-yl)-3,4-dihydroxytetrahydrofuran-2-yl)methyl)amino)ethyl)propionamide]	≤ 10 °C	> 10000 nM	> 1000 nM
Nc1ncnc2c1c(Br)cn2[C@@H]1C[C@H](CNCCCNCCc2cccc(F)c2)[C@@H](O)[C@H]1O [317 (218), (1R,2S,3R,5R)-3-(4-amino-5-bromo-7H-pyrrolo[2,3-d]pyrimidin-7-yl)-5-(((3-((3-fluorophenethyl)amino)propyl)amino)methyl) cyclopentane-1,2-diol]	15 to 20 °C	100 to 1000 nM	10 to 100 nM
Nc1ncnc2c1c(Br)cn2[C@@H]1C[C@H](CNCCCNCCc2ccc(F)cc2)[C@@H](O)[C@H]1O [319 (220), (1R,2S,3R,5R)-3-(4-amino-5-bromo-7H-pyrrolo[2,3-d]pyrimidin-7-yl)-5-(((3-((4-fluorophenethyl)amino)propyl)amino)methyl) cyclopentane-1,2-diol]	15 to 20 °C	100 to 1000 nM	10 to 100 nM
